In article PMC12752627, “Discovery of a Potent and Selective TEAD Degrader with Durable Degradation Activity” (Advanced Science, 2025):

How the values were obtained:
NCI-H226 cells = assay: Cell viability assay (CTG, 72 h) NCI-H226; type: cell-based; settings: Homo sapiens, NCI-H226, 72 h; 3-day antiproliferation; read-out: IC50 (nM ± SD), NCI-H226
Procedure: (§1) Cells were seeded at a density of 1000 cells per well in 96‐well flat‐bottomed cell culture plates and cultured overnight at 37 °C with 5% CO2 to allow for cell attachment. The following day, different concentrations of compounds were added using an I‐DOT dispenser. After 72 h, 25 µL of CellTiter‐Meiluncell Luminescent Cell Viability Reagent (Meilunbio, #PWL111‐2) was added and incubated for 15 min at room temperature. Luminescence signals were then measured using an Envision plate reader (Revvity). Data were analyzed using GraphPad Prism 9.5 software.^[ [30] ^]

TEAD4 = molecular target: T1, TEAD4 (Homo sapiens, UniProt Q15561); assay: HiBiT degradation assay, HEK293T HiBiT-TEAD4; type: cell-based; settings: 6 h
T1 construct: endogenous in cells; host or cells: HEK293T HiBiT knock-in
Procedure: HiBiT cells were inoculated into 96‐well flat‐bottomed tissue culture plates at a density of 50 000 cells per well, followed by adding degraders into the wells using the I‐DOT dispenser. After 6 h of incubation, the cells were lysed and assayed for degradation using the Nano‐Glo HiBiT Lysis Assay System (Promega, #N3030). Luminescence signals were read using an Envision plate reader (Revvity) and the data were analyzed using GraphPad Prism 9.5 software.
The ribonucleoprotein (RNP) complex was prepared by mixing 2 µg of NLS‐Cas9‐EGFP nuclease (Novoprotein, #E379‐01A), 50 pmol of sgRNA, 10 µL of electrotransfer solution, and 50 pmol of designed donor DNA, then incubated for 10 min at room temperature. One million HEK293T cells were resuspended in 10 µL of electrotransfection solution and mixed with 10 µL of the RNP complex. Electroporation was performed using a Celetrix SP100 electroporator at 480 V. After electroporation, the cells were transferred to antibiotic‐free DMEM complete medium for overnight culture. The following day, EGFP‐positive cells were sorted using a Sony MA 900 cell sorter, plated in a 96‐well cell culture plate (Servicebio, #CCP‐96H), and cultured for 4 weeks. After this period, positive clones were screened using the Nano‐Glo HiBiT Lytic Detection system (Promega, #N3030).

A172 cells [1] = assay: DIA proteomics in A172 cells; type: cell-based, Homo sapiens; settings: 100 nM, 24 h
Procedure: Cells were seeded in 6‐well plates at 1 × 10⁶ cells well^−1 and treated with 100 nM KG‐FP‐003 (n = 3). After 24 h incubation, cells were harvested, washed with ice‐cold PBS, and stored at −80 °C. Cell pellets were lysed in 4 volumes of lysis buffer (1% SDS, 1% protease inhibitor cocktail) followed by 3 min sonication on ice. After centrifugation (12 000 g, 10 min, 4 °C), supernatants were collected for BCA protein quantification. Proteins were reduced with 5 mM DTT (56 °C, 30 min), alkylated with 11 mM iodoacetamide (RT, dark, 15 min), and diluted with 200 mM TEAB to reduce urea concentration below 2 M. Trypsin digestion (1:50 enzyme‐to‐protein ratio) was performed at 37 °C overnight followed by additional 4 h digestion. Peptides were desalted using Strata‐X SPE columns. […] MS analysis was performed on a timsTOF Pro mass spectrometer in dia‐PASEF mode (ESI voltage: 1.75 kV; scan range: 300–1500 m z^−1). DIA data were processed using DIA‐NN (v1.8) against the Homo_sapiens_9606_SP_20 231 220.fasta database (20429 entries) with reversed decoys, using trypsin as the cleavage enzyme. Fixed modifications included N‐terminal methionine excision and carbamidomethylation of cysteine, with FDR set at <1%.

A172 cells [2] = assay: Cell viability assay (CTG, 72 h) A172; type: cell-based; settings: Homo sapiens, A 172, 72 h, 3-day compound treatment
Procedure: as §1

CRBN-DDB1 = CRBN-DDB1 (Homo sapiens, UniProt Q96SW2); assay: CRBN binding assay, biochemical (HTRF); settings: recombinant CRBN-DDB1, 1 h, read-out: Biochemical CRBN Binary Binding IC50 (nM ± SD)
Procedure: Next, 400 nL of compound solution (initial concentration 10 µM, followed by a three‐fold gradient dilution) was dispensed into the wells using the positive‐pressure‐based I‐DOT dispenser. After 1 h of incubation at room temperature, the HTRF signal was measured using an Envision plate reader (Revvity). Finally, the data were analyzed using non‐linear regression curves in GraphPad Prism 9.5 software.

[3] = Pharmacokinetic evaluation in ICR male mice; type: in vivo; settings: mouse, plasma
TEAD1 = TEAD1 (Homo sapiens, UniProt P28347); assay: Immunoblot in wild-type / CRBN-knockout HEK293T cells and rescue experiment; type: cell-based; set-up: endogenous in cells; host or cells: HEK293T wild-type and CRBN-knockout; settings: 6 h treatment
Procedure: Immunoblotting was carried out as previously described.^[ [29] ^] Cells were seeded in 6‐well plates (Yeasen, #84011ES50) at a density of 1 million cells per well. The following day, cells were treated with compounds at the required concentrations, with the DMSO concentration kept below 0.4‰ to prevent toxic effects on the cells. The collected cell pellets were washed three times with PBS (Meilunbio, #MA0015) and resuspended in 120 µL of RIPA lysis buffer (Meilunbio, #MA0151) containing 1% protease inhibitor (Meilunbio, #MB2678‐2). The cells were then sonicated on ice and centrifuged at 12 000 rpm for 15 min at 4 °C to remove cellular debris. Protein concentrations were determined using the BCA Protein Quantification Kit (Meilunbio, #MA0082‐1). The protein samples were normalized, boiled at 99 °C for 10 min, and then subjected to electrophoresis on a 10% SDS‐PAGE gel. The separated protein bands were transferred to nitrocellulose membranes, blocked with TBST containing 5% BSA, and incubated with the indicated primary antibodies. Finally, the blots were imaged using an Amersham Typhoon NIR imager.

T1 sequence (Q15561 whole entry): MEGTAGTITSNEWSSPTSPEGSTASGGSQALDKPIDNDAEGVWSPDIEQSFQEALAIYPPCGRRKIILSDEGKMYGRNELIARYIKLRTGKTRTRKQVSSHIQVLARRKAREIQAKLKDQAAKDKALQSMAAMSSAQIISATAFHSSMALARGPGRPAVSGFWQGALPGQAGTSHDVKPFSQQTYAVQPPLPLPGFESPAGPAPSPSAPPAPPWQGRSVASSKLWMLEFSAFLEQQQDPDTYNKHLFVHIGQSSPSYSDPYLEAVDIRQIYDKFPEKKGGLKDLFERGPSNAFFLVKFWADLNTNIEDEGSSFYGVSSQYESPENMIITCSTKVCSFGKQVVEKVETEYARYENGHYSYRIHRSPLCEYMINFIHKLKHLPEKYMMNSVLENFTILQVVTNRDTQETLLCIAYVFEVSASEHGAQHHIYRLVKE
Chain of TEAD1 (P28347 whole entry): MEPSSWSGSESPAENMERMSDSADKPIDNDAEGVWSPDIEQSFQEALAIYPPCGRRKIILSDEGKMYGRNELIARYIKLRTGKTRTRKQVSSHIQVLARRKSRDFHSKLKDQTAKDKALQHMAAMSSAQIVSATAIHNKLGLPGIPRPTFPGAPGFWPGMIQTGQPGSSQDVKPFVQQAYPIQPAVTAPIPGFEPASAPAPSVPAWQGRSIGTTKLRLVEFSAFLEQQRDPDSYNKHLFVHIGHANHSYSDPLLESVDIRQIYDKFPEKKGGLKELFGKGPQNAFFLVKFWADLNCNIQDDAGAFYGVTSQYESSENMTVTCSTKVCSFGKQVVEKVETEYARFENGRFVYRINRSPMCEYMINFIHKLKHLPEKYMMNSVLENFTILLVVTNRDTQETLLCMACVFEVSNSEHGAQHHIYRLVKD
Chain of CRBN-DDB1 (Q96SW2 whole entry): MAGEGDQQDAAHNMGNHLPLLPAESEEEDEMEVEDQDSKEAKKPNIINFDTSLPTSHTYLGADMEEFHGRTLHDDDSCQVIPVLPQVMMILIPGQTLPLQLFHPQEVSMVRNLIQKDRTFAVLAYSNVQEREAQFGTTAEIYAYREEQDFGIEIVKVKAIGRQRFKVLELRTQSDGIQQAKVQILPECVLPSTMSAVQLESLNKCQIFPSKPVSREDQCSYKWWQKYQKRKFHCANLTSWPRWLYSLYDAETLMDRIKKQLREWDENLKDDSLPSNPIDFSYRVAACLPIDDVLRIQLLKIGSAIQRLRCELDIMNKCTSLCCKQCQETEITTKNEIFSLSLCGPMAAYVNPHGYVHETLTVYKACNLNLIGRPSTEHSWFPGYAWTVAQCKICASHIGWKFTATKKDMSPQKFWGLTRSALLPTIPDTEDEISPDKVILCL

Q: What does the source list for CNC(=O)c1cc2c(c(F)c1-c1c(Cl)c(F)cc3c1C[C@@](CN[C@H]1CC[C@H](C(=O)N4CCC(CC5CCN(C(=O)COc6ccc(N7CCC(=O)NC7=O)c(C)c6)CC5)CC4)CC1)(c1ccccc1)O3)[C@@H](O)[C@@H](C)C2 [KG-FP-003]?
A: IC50 (NCI-H226 cells): 27 ± 7 nM; DC50 (TEAD4): 7 ± 5 nM; TEAD4 Dmax (TEAD4): ≈ 90%; Dmax (TEAD4; HEK-293T): 88 ± 6%; Proteome-wide selectivity (A172 cells [1]): significantly and selectively downregulated TEAD1 protein levels; IC50 (A172 cells [2]): 7 ± 6 nM; IC50 (CRBN-DDB1): 591 ± 21 nM; AUC(0-inf) ([3]; IP 5 mg/kg): 2610 ng·h/mL; AUC(0-t) ([3]; IP 5 mg/kg): 2560 ng·h/mL; Cmax ([3]; IP 5 mg/kg): 2010 ng/mL; MRT inf ([3]; IP 5 mg/kg): 3.13 h; Tmax ([3]; IP 5 mg/kg): 0.42 h; half-life ([3]; IP 5 mg/kg): 5.42 h; bioavailability ([3]; IP 5 mg/kg, read-out: F% (bioavailability)): 99%; AUC(0-inf) ([3]; IV 2 mg/kg): 1060 ng·h/mL; AUC(0-t) ([3]; IV 2 mg/kg): 1040 ng·h/mL; Cmax ([3]; IV 2 mg/kg): 4430 ng/mL; MRT inf ([3]; IV 2 mg/kg): 1.4 h; Tmax ([3]; IV 2 mg/kg): 0 h; half-life ([3]; IV 2 mg/kg): 3.57 h; TEAD degradation in CRBN-null HEK293T cells (TEAD1): minimal
